According to the supplement of paper PMC10307832:

What was measured:
Assay in all cases: relative viability (nuclei count vs DMSO), 5 days (fraction); higher = more cells survive
[1] = compound: CCC1=CN=CN=C1N2CCN(CC2)CC3=NC4=C(N3)C=C(C=C4)C(F)(F)F + O=C(c1cc(Cc2n[nH]c(=O)c3ccccc23)ccc1F)N1CCN(C(=O)C2CC2)CC1 [Olaparib] (partner 8 µM)
In short: (§1)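 Lung cancer cell lines in 1536-well plates got either a single drug or a fixed anchor-drug dose together with five library-drug doses (not always all listed) in √10 steps, by pin tool, on the day after seeding. Nuclei were counted after 5 days, and relative viability is the treated-to-vehicle ratio of nuclei counts. Values are medians of duplicate plates.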

[2] = compound: CCn1c(-c2nonc2N)nc2cnc(Oc3cccc(NC(=O)c4ccc(OCCN5CCOCC5)cc4)c3)cc21 + C[C@@H](Oc1cc(-c2cnn(C3CCNCC3)c2)cnc1N)c1c(Cl)ccc(F)c1Cl [Crizotinib] (partner 1 µM)
In short: as §1

[3] = compound: CCC1=CN=CN=C1N2CCN(CC2)CC3=NC4=C(N3)C=C(C=C4)C(F)(F)F + CS(=O)(=O)CCNCc1ccc(-c2ccc3ncnc(Nc4ccc(OCc5cccc(F)c5)c(Cl)c4)c3c2)o1 [Lapatinib] (partner 2 µM)
In short: as §1

[4] = compound: CCC1=CN=CN=C1N2CCN(CC2)CC3=NC4=C(N3)C=C(C=C4)C(F)(F)F + CC(=O)Nc1cccc(-n2c(=O)n(C3CC3)c(=O)c3c(Nc4ccc(I)cc4F)n(C)c(=O)c(C)c32)c1 [Trametinib] (partner 0.02 µM)
In short: as §1

Question: Which results are given for UMC-11?
Answer: relative viability ([1]; first compound 0.04 µM): 0.393; relative viability ([1]; first compound 0.1265 µM): 0.392; relative viability ([1]; first compound 0.4 µM): 0.359; relative viability ([1]; first compound 1.265 µM): 0.32; relative viability ([1]; first compound 4 µM): 0.332; relative viability ([2]; first compound 0.04 µM): 0.924; relative viability ([2]; first compound 0.1265 µM): 0.743; relative viability ([2]; first compound 0.4 µM): 0.577; relative viability ([2]; first compound 1.265 µM): 0.135; relative viability ([2]; first compound 4 µM): 0.121; relative viability ([3]; first compound 0.04 µM): 0.808; relative viability ([3]; first compound 0.1265 µM): 0.974; relative viability ([3]; first compound 0.4 µM): 0.905; relative viability ([3]; first compound 1.265 µM): 0.719; relative viability ([3]; first compound 4 µM): 0.977; relative viability ([4]; first compound 0.04 µM): 0.721; relative viability ([4]; first compound 0.1265 µM): 0.592; relative viability ([4]; first compound 0.4 µM): 0.671; relative viability ([4]; first compound 1.265 µM): 0.514; relative viability ([4]; first compound 4 µM): 0.721
